Results as given in EP3050567B1, “COMPOUND FOR ACTIVATING AMPK AND USES THEREOF” (Energenesis Biomedical Co., Ltd., priority 2013, dated 2015).

Assays:
3T3 cells = assay: Fibroblast proliferation assay (trypan blue cell counting); format: cell-based, mouse; conditions: 72 h, mean±SEM of three experiments
Protocol: (§1) […] fibro blast cell line 3T3 were cultured in high-glucose Dulbecco's modified Eagle's medium (DMEM) containing 10% fetal bovine serum (FBS), 4 mM L-glutamine, 2 mM sodium pyruvate and 1% penicillin/streptomycin (Invitrogen GibcoBRL, Carlsbad, Calif., USA) at 37°C under 5% CO2. For cell proliferation assay, 3T3 cells were plated at 1 × 10^5 per well (6-well plate). Twenty-four hours after plating, cells were treated with indicated concentration of adenine for 72 h and the number of viable cells was counted. Cells were detached using trypsin-EDTA solution and stained with trypan blue. The living cells were counted using hemocytometer.

AMPK [1] = assay: AMPK activation assay (phospho-AMPK Thr172 western blot) in dermal papilla cells; format: cell-based; conditions: 30 min
Protocol: (§2) Effects of adenine on AMPK activation were evaluated based on the phosphorylation of AMPK protein upon adenine treatment. Mouse muscle cell C2C12, mouse fibroblast 3T3, human liver carcinoma cell Hep G2, human breast adenocarcinoma cell line MCF7 and human colon adenocarcinoma grade II cell line HT29, human umbilical vein endothelial cell HUVEC, Human acute monocytic leukemiacell THP1, human macrophage cell U937, murine microglia cell BV-2, and mouse neuroblastoma cell Neuro2A and dermal papilla cell were cultured in high-glucose Dulbecco's modified Eagle's medium (DMEM) containing 10% fetal bovine serum (FBS), 4 mM L-glutamine, 2 mM sodium pyruvate and 1% penicillin/streptomycin (Invitrogen GibcoBRL, Carlsbad, Calif., USA) at 37°C, under 5% CO2. Cells were plated at 3 × 10^5 per well in 6-well plates. Twenty-four hours after plating, adenine was added to the culture media as indicated. After 30 min cells were lysed and subject to western blot analysis. Equal amount of protein from each sample was separated by SDS-PAGE and then electroblotted on to PVDF membranes. Membranes were blocked with 3% BSA in PBS for 60 min and incubated with an anti-phospho-AMPK (Thr172) antibody (1:2,000, Cell signaling) or an anti-AMPK antibody (1:2,000, Cell signaling) at 4°C for 16 h followed by the corresponding secondary antibody for 1 h at room temperature (RT). Immunoreactive bands were detected by enhanced chemiluminescence and recorded using Kodak film. The detected signals were scanned and then quantified using TotalLab Quant software (TotalLab).

COX-2 = assay: LPS-induced inflammatory response in THP1 macrophages, intracellular COX-2 (western blot); format: cell-based, human; conditions: 50 ng LPS 6 hr
Protocol: (§3) Effects of adenine on inflammatory response were evaluated in human THP1 macrophage by examining protein level of intracellular COX-2 and secreted TNFα, IL-1β and IL-6. Differentiation of THP1 monocytes into macrophages was induced by 50 nM PMA for 24 hr. THP1 macrophages were further stimulated by 50 ng LPS for 6 hr in the presence of 10-600 µM of adenine or vehicle followed by cell lysis and western blot analysis. Equal amounts of protein were separated by SDS-PAGE and then electroblotted on to PVDF membranes. Membranes were blocked with 3% BSA in PBS for 60 min and incubated with an anti-COX-2 antibody (1:1,000, Cell signaling), an anti-actin antibody (1:5,000, Cell signaling) at 4° C for 16 h followed by the corresponding secondary antibody for 1 h at room temperature (RT). Immunoreactive bands were detected by enhanced chemiluminescence and recorded using Kodak film. The detected signals were scanned and then quantified using TotalLab Quant software (TotalLab). The secreted TNFα, IL-1β and IL-6 were analyzed by enzyme-linked immunosorbent assays.

AMPK [2] = assay: AMPK activation assay (phospho-AMPK Thr172 western blot) in MCF7 cells; format: cell-based, human; conditions: 30 min
Protocol: as §2

AMPK [3] = assay: AMPK activation assay (phospho-AMPK Thr172 western blot) in THP1 cells; format: cell-based, Human; conditions: 30 min
Protocol: as §2

IL-1β = assay: LPS-induced inflammatory response in THP1 macrophages, secreted IL-1β (ELISA); format: cell-based, human; conditions: 50 ng LPS 6 hr
Protocol: as §3

AMPK [4] = assay: AMPK activation assay (phospho-AMPK Thr172 western blot) in HUVEC cells; format: cell-based, human; conditions: 30 min
Protocol: as §2

MCF7 = assay: Cancer cell growth inhibition assay, MCF7; format: cell-based; conditions: Homo sapiens; MCF7 cell proliferation, 72 h, cell counting
Protocol: as §1, with “liver hepatocellular carcinoma” for “fibro blast”, “Hep G2, human breast adenocarcinoma cell line MCF7 and human colon adenocarcinoma grade II cell line HT29 were used to evaluate the effects of adenine on cell proliferation. Those cell lines were obtained from ATCC and” for “3T3”, “Cells” for “For cell proliferation assay, 3T3 cells”, “then followed by cell counting.” for “the number of viable cells was counted.”

Compound: Nc1ncnc2nc[nH]c12 [Adenine, adenine]
- Cellnumber (% to control) (3T3 cells; adenine 10 microM): 91±2.7 % to control
- Cellnumber (% to control) (3T3 cells; adenine 50 microM): 73±8.1 % to control
- Cellnumber (% to control) (3T3 cells; adenine 100 microM): 64±5.3 % to control
- Cellnumber (% to control) (3T3 cells; adenine 200 microM): 48±2.8 % to control
- Cellnumber (% to control) (3T3 cells; adenine 500 microM): 33±6.4 % to control
- Cellnumber (% to control) (3T3 cells; adenine 1000 microM): 27±11.3 % to control
- AMPK activation (fold to control) (AMPK [1]; adenine 1 microM): 1.1 fold to control
- AMPK activation (fold to control) (AMPK [1]; adenine 10 microM): 1.4 fold to control
- AMPK activation (fold to control) (AMPK [1]; adenine 100 microM): 2.1 fold to control
- AMPK activation (fold to control) (AMPK [1]; adenine 200 microM): 2.5 fold to control
- AMPK activation (fold to control) (AMPK [1]; adenine 600 microM): 2.8 fold to control
- COX-2 (% to control) (COX-2; adenine 10 microM): 81±4.4 % to control
- COX-2 (% to control) (COX-2; adenine 100 microM): 59±3.5 % to control
- COX-2 (% to control) (COX-2; adenine 600 microM): 38±5.3 % to control
- AMPK activation (fold to control) (AMPK [2]; adenine 1 microM): 1.2 fold to control
- AMPK activation (fold to control) (AMPK [2]; adenine 10 microM): 1.6 fold to control
- AMPK activation (fold to control) (AMPK [2]; adenine 100 microM): 2.5 fold to control
- AMPK activation (fold to control) (AMPK [2]; adenine 200 microM): 3.4 fold to control
- AMPK activation (fold to control) (AMPK [2]; adenine 600 microM): 3.7 fold to control
- AMPK activation (fold to control) (AMPK [3]; adenine 1 microM): 1.2 fold to control
- AMPK activation (fold to control) (AMPK [3]; adenine 10 microM): 2.2 fold to control
- AMPK activation (fold to control) (AMPK [3]; adenine 100 microM): 3.7 fold to control
- AMPK activation (fold to control) (AMPK [3]; adenine 200 microM): 4.3 fold to control
- AMPK activation (fold to control) (AMPK [3]; adenine 600 microM): 4.2 fold to control
- IL-1β □ (%to control) (IL-1β; adenine 10 microM): 91±8.4 %to control
- IL-1β □ (%to control) (IL-1β; adenine 100 microM): 29±5.5 %to control
- IL-1β □ (%to control) (IL-1β; adenine 600 microM): 17±3.7 %to control
- AMPK activation (fold to control) (AMPK [4]; adenine 1 microM): 1.2 fold to control
- AMPK activation (fold to control) (AMPK [4]; adenine 10 microM): 1.9 fold to control
- AMPK activation (fold to control) (AMPK [4]; adenine 100 microM): 3.2 fold to control
- AMPK activation (fold to control) (AMPK [4]; adenine 200 microM): 3.9 fold to control
- AMPK activation (fold to control) (AMPK [4]; adenine 600 microM): 4.1 fold to control
- IC50 (MCF7): 538 µM
